# In patent US10760130B2, “Predictive biomarker for hypoxia-activated prodrug therapy” (MOLECULAR TEMPLATES, INC., priority 2014, dated 2020):
# Columns and labels:
# [1] = system: locally advanced or metastatic pancreatic cancer; assay: TH-CR-404 Phase II clinical trial in pancreatic cancer (NCT01144455); format: in vivo, human
# Method: In the TH-CR-404 Phase II clinical trial in pancreatic cancer (NCT01144455), pancreatic cancer patients with locally advanced or metastatic disease were randomized in three study arms to receive Gemcitabine (Gem) therapy or the combination of Gemcitabine with one of 2 dose levels of TH-302. TH-302 was administered either at 240 or 340 mg/m^2 by intravenous infusion. A total of 214 patients were enrolled (Gemcitabine arm, n=69; Gemcitabine+TH-302 240 mg/m^2, n=71; Gemcitabine+TH-302 340 mg/m^2, n=74).
# To search for potentially predictive serum biomarkers of the clinical benefit derived from TH-302 hypoxia-activated therapy, an initial search of candidate biomarkers was conducted from the trial pre-treatment serum samples using a multiplexed bead-based immunoassay (AssayGate, Inc., Ijamsville, Md.). When measuring serum samples for ENO1 and ENO2 protein levels by means of this bead-based, suspension immunoassay format for ENO1, the limit of detection of the assay was 1.8 ng/ml. For ENO2, the assay sensitivity was 1.2 ng/ml.
# Following the identification of ENO2 as a potentially predictive biomarker for the clinical benefit derived from TH-302, the levels of ENO1 were tested in the same patient serum samples (Harris A L, 2002, Nat Rev Cancer 2: 38-47; Semenza G L, 2003, Nat Rev Cancer 3: 721-732). High levels of ENO1 were associated with improved PFS and OS in Gemcitabine+TH-302 340 mg/m^2 patient samples in this trial (FIG. 2). These associations were shown using the ENO1 cut-off value of the assay sensitivity limit (1.8 ng/ml) (FIGS. 2A and 2B).
# [2] = system: locally advanced or metastatic pancreatic cancer; conditions: cited from earlier work
# [3] = system: panel of 11 cancer cell-line derived models; conditions: tumor xenografts, variety of tumor types; cited from earlier work
smiles,measurement,setting,value
"Cn1c(COP(=O)(NCCBr)NCCBr)cnc1[N+](=O)[O-] [TH-302, (2-bromoethyl)({[(2-bromoethyl)amino][(2-nitro-3-methylimidazol-4-yl)methoxy]phosphoryl})amine]",difference between treatment groups of median PFS time among patients with high ENO2,"[1]; Gem vs Gem+TH-302 340 mg/m^2, ENO2 median cut-off 20.3913 ng/ml, FIG. 1A",more pronounced
same,difference between treatment groups of median OS time among patients with high ENO2,"[1]; Gem vs Gem+TH-302 340 mg/m^2, ENO2 median cut-off 20.3913 ng/ml, FIG. 1B",more pronounced
same,OS in patients with high serum ENO1 levels,"[1]; Gemcitabine+TH-302 340 mg/m^2, ENO1 cut-off 1.8 ng/ml (more pronounced at 2.3 and 3.2 ng/ml), FIG. 2B-2D",improved
same,PFS in patients with high serum ENO1 levels,"[1]; Gemcitabine+TH-302 340 mg/m^2, ENO1 cut-off 1.8 ng/ml, FIG. 2A",improved
same,progression free survival (PFS) hazard ratio (HR),"[2]; Gemcitabine+TH-302 340 mg/m^2 (high-dose group) vs Gemcitabine alone, intravenous infusion, p=0.008",0.58
same,primary endpoint: progression free survival (PFS),[2]; Gemcitabine+TH-302 groups (240 or 340 mg/m^2) compared to Gemcitabine alone,improved progression free survival
same,monotherapy efficacy (tumor growth delay),[3],modest
